# Experimental data published in paper PMC5832243, “The importance of negative determinants as modulators of CK2 targeting. The lesson of Akt2 S131” (PLoS ONE, 2018).
# How the values were obtained:
# Type in all cases: biochemical
# [1] = target: T1, recombinant CK2 α2β2 (Homo sapiens, UniProt P67870+P68400); assay: CK2 kinase assay, phosphorylation of synthetic peptides (33P, phosphocellulose filters); details: for Phosphorylation by CK2, time course (in words): 0-120 min incubation with CK2 (Fig 1A); for Phosphorylation by CK2: summary class of level of phosphorylation by CK2 (Table 4); for Effect of residue replacement in the Akt2 peptide on phosphorylation by CK2 (in words): 10 min with CK2, % of cpm of Akt1 wt peptide, means of 4 experiments (Fig 2A)
# T1 construct: made in house
# T1 sequence (P68400 whole entry): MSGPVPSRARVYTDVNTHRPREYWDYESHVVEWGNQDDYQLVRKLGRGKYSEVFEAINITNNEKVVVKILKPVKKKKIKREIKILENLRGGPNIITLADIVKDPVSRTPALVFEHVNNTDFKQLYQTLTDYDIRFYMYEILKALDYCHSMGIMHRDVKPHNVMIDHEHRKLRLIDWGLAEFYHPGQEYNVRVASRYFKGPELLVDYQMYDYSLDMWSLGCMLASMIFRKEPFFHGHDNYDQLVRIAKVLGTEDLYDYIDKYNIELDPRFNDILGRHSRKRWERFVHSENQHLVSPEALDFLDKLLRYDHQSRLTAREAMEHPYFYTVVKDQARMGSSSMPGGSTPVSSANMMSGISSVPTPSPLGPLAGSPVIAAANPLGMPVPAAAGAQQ
# T1 sequence (P67870 whole entry partner): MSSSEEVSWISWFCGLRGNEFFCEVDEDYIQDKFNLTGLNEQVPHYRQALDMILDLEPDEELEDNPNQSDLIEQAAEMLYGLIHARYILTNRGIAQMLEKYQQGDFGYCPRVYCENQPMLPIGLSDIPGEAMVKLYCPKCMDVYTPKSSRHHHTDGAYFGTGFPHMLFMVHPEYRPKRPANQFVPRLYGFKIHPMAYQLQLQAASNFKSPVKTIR
# Experimental: Recombinant CK2α and CK2 α2β2 were expressed, purified and kindly donated by Dr. Stefania Sarno (Padova, Italy) and Andrea Venerando (Padova, Italy).
# Phosphorylation of synthetic peptides was performed with recombinant CK2 α2β2 (0.025 μg) incubated at 30°C in a final volume of 20 μl containing 50 mM Tris/HCl (pH 7.5), 100 mM NaCl, 10 mM MgCl2, the indicated concentrations of peptides, and 20 μM [γ^33P-ATP] (5000–10000 cpm/pmol). Assays were stopped by spotting onto phosphocellulose filters. Filters were washed four times in 0.5% orthophosphoric acid before counting.
# [2] = system: CK2; assay: Phospho-aminoacid determination after CK2 phosphorylation (acid hydrolysis, high-voltage paper electrophoresis); details: 2 mM peptide, 20 or 120 min with CK2; only faint traces of phospho-threonine (Fig 2C)
# Experimental: For the identification of the amino acids phosphorylated by CK2 in Akt2 peptide, after phosphorylation samples were hydrolyzed by incubation for 4 h at 110°C in 6 N HCl, then subjected to high-voltage paper electrophoresis at pH 1.9 for 2.5 h, in the presence of nonradioactive phospho-amino acids, as migration reference. Radioactivity was detected by digital autoradiography (Cyclone plus storage phosphor system, PerkinElmer), while migration of standard references was detected by ninhydrin staining.
# [3] = system: Recombinant human PLK3-GST; assay: PLK3 kinase assay on substrate peptides (33P, phosphocellulose filters); details: 1mM peptide, 1.5 μg PLK3, 10 min, 37°C, 20 μM [γ-33P]ATP; range according to the specific radioactivity; no-peptide control 2800-9000 cpm
# Experimental: Recombinant human PLK3-GST (Polo-like kinase3 - Glutathione S-transferase), cloned in PGEX-4T1 vector, was produced in BL21 cells and purified by glutathione-Sepharose affinity chromatography, eluted by an elution buffer composed of 50mM Hepes, pH 8.0 and 20mM reduced glutathione. Purity was assessed by SDS-PAGE and Comassie blue staining.
# 1.5 μg of purified recombinant-PLK3 were incubated with the substrate peptides for 10 min at 37°C in 20 μl of kinase assay buffer containing 20 mM Tris-HCl pH 7.5, 10 mM MgCl2, 5mM DTT (dithiothreitol), 20 μM [γ-^33P]ATP (2000-6000 cpm/pmol). Assays were stopped by spotting onto phosphocellulose filters. Filters were washed four times in 0.5% orthophosphoric acid before scintillation counting.
Substance,Phosphorylation by CK2 [1],Effect of residue replacement in the Akt2 peptide on phosphorylation by CK2 (in words) [1],also measured
R3GSPSDNSGAEEMEV [Akt1(wt)],+,,"Phosphorylation by CK2, time course (in words) [1]: good substrate"
"R3GSPSDSSATEEMEV [Akt2TA, Akt2 peptide with T at n+1 replaced by A]",+,,
"R3GSPSDSSSTEEMEV [Akt2TS, Akt2 peptide with T at n+1 replaced by S]",+,,
R3GSPSDSSTTEEMEV [Akt2(wt)],- (or not (-)),,"Phospho-aminoacid accounting for phosphorylation by CK2 [2]: entirely accounted for by phospho-serine; cpm detected in PLK3 assay [3]: 50000-150000 cpm; Phosphorylation by CK2, time course (in words) [1]: negligible extent; drop in phosphorylation efficiency in comparison to the Akt1 peptide ([1]; from Km and Vmax of Fig 1B): ~10 fold"
"R3GSPSDNSTTEEMEV [Akt2N, Akt2 peptide with S at n-1 replaced by N]",- (or not (-)),no beneficial effect,
"R3GSPSDSSTAEEMEV [Akt2A, Akt2 peptide with T at n+2 replaced by A]",- (or not (-)),no beneficial effect,
"R3GSPSDSSGTEEMEV [Akt2TG, Akt2 peptide with T at n+1 replaced by G]",+,comparable to that of the Akt1 peptide,
"R3GSPSDNSTAEEMEV [Akt1GT, Akt1 peptide with G at n+1 replaced by T]",- (or not (-)),,
